Data on one molecule can be found in patent publication US20250127743A1, “USE OF BRANCHED CHAIN FATTY ACIDS (BCFAS) FOR THE TREATMENT OF INTESTINAL INFLAMMATION” (priority 2021, published 2025).

Molecules are shown by their SMILES.

In data set [1] the test system is DSS-treated mice. The experiment in a line: Colonic permeability (Lucifer yellow flux, Ussing chambers) in DSS mouse model of colitis. In kind it is in vivo. Conditions: 2% DSS in drinking water 7 days, 150 mM in drinking water, three days after the end of DSS. Here is the method:
Eight-weeks-old C57Bl/6JRj male mice (Janvier Labs, Le-Genest-Saint-Isle, France) were housed at 23° C. (5 animals/cage) with a 12-h light-dark cycle in regular open cages. All animals were fed with a non-sterilized standard rodent diet (3430.PM.S10, Serlab, France). Drinking water was not sterilized. Animals were acclimatized to the animal facility for 1 week before experimentations. To monitor the effect of BCFAs on chemically-induced intestinal inflammation, animals were split in three groups (8 animals/group): one group had no treatment, one group was treated with DSS (Dextran Sulfate Sodium, MB Biomedicals, France; 2% in drinking water) from D4 to D11 to induce colitis and one group was treated both with sodium isobutyrate (150 mM in drinking water, pH 7.4; from DO to D13) and DSS (D4 to D11). Colon samples were cut along the mesenteric border. Colonic permeability was assessed by measuring Lucifer yellow (440 Da; Sigma-aldrich) fluxes in Ussing chambers with an exchange surface of 0.07 cm2 (Harvard Apparatus, Holliston, MA). Lucifer yellow (250 μg/ml) was added to the mucosal side. After 3 h at 37° C., medium from the serosal side was removed and the fluorescence level of Lucifer yellow (excitation: 428 nm; emission: 540 nm) was quantified.

Data set [2] concerns CACO2 cells. The experiment in a line: Luminol-based ROS detection assay in CACO2 cells. In kind it is cell-based. Here is the method:
Luminol was dissolved in NaOH 0.1 M to obtain a 50 mM stock solution. A stock solution of 1000 U/mL HRP (HorseRadish Peroxidase) was prepared in parallel in PBS (Phosphate-Buffered Saline). After treatment with BCFAs or SCFAs or incubation in HBSS at pH 5.2, CACO2 and HeLa culture media were collected and centrifugated for 5 min at 13,000×g at room temperature. The pH of these culture media was then buffered to 7.5 to avoid pH-dependent interferences with luminol activity. Luminol (1 mM final concentration) and HRP (4 U/mL) were finally added to each culture media and luminescence was quantified immediately on a luminometer (Tecan).

Data set [3] can be described thus: pH and acid/base forms of BCFA in HBSS medium. In kind it is physicochemical. Conditions: 5 mM added to HBSS medium. Here is the method:
(§1) Before treatments, cell culture medium was replaced by HBSS (Hanks' Balanced Salt Solution; Sigma). Cells were then treated as indicated in the text and directly lysed with Laemmli buffer. For BCFAs and SCFAs treatments, 100 mM stock solutions in water were first prepared from the corresponding acidic form (e.g. isobutyric acid) or from the sodium salt of the corresponding basic form (e.g. sodium isobutyrate) and then further diluted in cell culture media (HBSS). When needed, the pH of cell culture medium was set using either 0.1 M NaOH or 0.1 M HCl solution. […] For TNFα treatments, CACO2 cells were first incubated with BCFAs or SCFAs for 1 hour and then incubated with 100 ng/mL recombinant human TNFα (PeproTech). For immunoblotting and qRT-PCR analyses, cells were lysed after 30 min or 1h of incubation with TNFα, respectively. For Transepithelial electrical resistance (TEER) measurements, cells were incubated for 24 h with TNFα. Viability of cells incubated with HBSS at various pH or with BCFAs was assessed using the CellTiter-Glo® luminescent cell viability assay (Promega), according to the manufacturer's protocol.
BCFAs are weak organic acids, which exist in solution either as acidic (R—COOH) or basic (R—COO^−) forms.

The subject of data set [4] is DSS-treated mice. The experiment in a line: Fecal calprotectin in DSS mouse model of colitis. Format: in vivo. Conditions: 2% DSS in drinking water 7 days, 150 mM in drinking water, 3 days after the end of DSS. Here is the method: Eight-weeks-old C57Bl/6JRj male mice (Janvier Labs, Le-Genest-Saint-Isle, France) were housed at 23° C. (5 animals/cage) with a 12-h light-dark cycle in regular open cages. All animals were fed with a non-sterilized standard rodent diet (3430.PM.S10, Serlab, France). Drinking water was not sterilized. Animals were acclimatized to the animal facility for 1 week before experimentations. To monitor the effect of BCFAs on chemically-induced intestinal inflammation, animals were split in three groups (8 animals/group): one group had no treatment, one group was treated with DSS (Dextran Sulfate Sodium, MB Biomedicals, France; 2% in drinking water) from D4 to D11 to induce colitis and one group was treated both with sodium isobutyrate (150 mM in drinking water, pH 7.4; from DO to D13) and DSS (D4 to D11). Fecal pellets were weighted and resuspended in 600 μL of PBS with 1% protease and phosphatase inhibitors (Sigma-Aldrich, USA). After a centrifugation step (12000×g, 15 min, 4° C.), calprotectin was quantified in the obtained supernatants using the S100A8 DuoSet® kit (R&D Systems, Minneapolis), according to the manufacturer's protocol.

Data set [5] has as its system IκBα. Kind of data set: Immunoblot of IκBα levels in TNFα-stimulated CACO2 cells. In kind it is cell-based. To be noted: 1 hour pre-incubation with 5 mM, then 30 min 100 ng/mL TNFα. Here is the method: as §1
Cell lysates and protein extracts from intestinal tissues in Laemmli buffer were boiled for 5 min, sonicated and protein content was resolved using SDS-polyacrylamide gel electrophoresis. Proteins were then transferred on PVDF membranes (GE Healthcare) and detected after incubation with specific antibodies using ECL Clarity Western blotting Substrate (BioRad). […] Quantifications of proteins were performed on a ChemiDoc Imaging System (Bio-rad). SUMO2/3-conjugated proteins levels (above 50 kDa), SUMO1-conjugated protein levels (above 50 kDa), and other specific protein levels were normalized either by the level of total proteins above 50 kDa (determined using the TGX-stain free imaging technology; Bio-rad) or by the level of actin in each lysate.
A general note: Immunoblotting shows a protein as a band on a membrane.

Consider `CC(C)C(=O)[O-].[Na+]` [sodium isobutyrate], for which, in data set [1], the DSS-induced colonic hyperpermeability entry is listed as “significantly decreases”. Besides, the “ROS detection after incubation with sodium salts (basic forms)” value in data set [2] was “no ROS were detected”. Besides, in data set [3], the “concentration present as isobutyrate” value is roughly 4990 µM, the “concentration present as isobutyric acid” value is roughly 10 µM, the “pH of HBSS medium after addition” value is roughly 7.5 and the “proportion present as isobutyrate” value is listed as roughly 99.8%. Further, the “proportion present as isobutyric acid” value in data set [3] is roughly 0.2%. Further, the “level of fecal calprotectin” value in data set [4] is given as “significantly decreases”. In addition, in data set [5], the “TNFα-triggered degradation of IκBα” value is listed as “not observed”.
